Experimental data taken from patent US8101632B2, “5-furopyridinone substituted indazoles” (Albany Molecular Research, Inc., priority 2007, dated 2012).
Structures can show the parent of a compound that is named as a salt.

With `COc1cc(Cl)ccc1-c1cc2c(=O)n(-c3ccc4c(cnn4CCN4CCCC4)c3)ccc2o1.Cl` the melting point was 240 to 242 °C. In the case of `Cl.O=c1c2cc(-c3ccccc3Cl)oc2ccn1-c1ccc2c(cnn2CCN2CCCC2)c1`, the melting point is reported as 102 to 104 °C. With `Cl.N#Cc1cc(F)ccc1-c1cc2c(=O)n(-c3ccc4c(cnn4CCN4CCCC4)c3)ccc2o1` the melting point was 120 to 122 °C. `Cl.O=c1c2cc(-c3ccc(F)cc3Cl)oc2ccn1-c1ccc2c(cnn2CCN2CCCC2)c1` gave a melting point of 140 to 142 °C. `Cl.O=c1c2cc(-c3ccc(Cl)cc3F)oc2ccn1-c1ccc2c(cnn2CCN2CCCC2)c1` showed a melting point of 256 to 258 °C. `Cl.O=c1c2cc(-c3ccc(F)cc3)oc2ccn1-c1ccc2c(cnn2CCN2CCCC2)c1` showed a melting point of 218 to 220 °C. In the case of `Cl.O=c1c2cc(-c3ccc(C(F)(F)F)cc3)oc2ccn1-c1ccc2c(cnn2CCN2CCCC2)c1`, the melting point is reported as 252 to 254 °C. With `Cl.O=c1c2cc(-c3ccccc3F)oc2ccn1-c1ccc2c(cnn2CCN2CCCC2)c1` the melting point was 264 to 266 °C. In the case of `Cl.O=c1c2cc(-c3ccc(F)cc3F)oc2ccn1-c1ccc2c(cnn2CCN2CCCC2)c1`, the melting point is reported as 256 to 258 °C. In the case of `Cc1ccc(-c2cc3c(=O)n(-c4ccc5c(cnn5CCN5CCCC5)c4)ccc3o2)c(F)c1.Cl`, the melting point is reported as 268 to 270 °C. Work on `Cc1ccc(-c2cc3c(=O)n(-c4ccc5c(cnn5CCN5CCCC5)c4)ccc3o2)cc1.Cl` yielded a melting point of 262 to 264 °C. For `Cc1ccc(-c2cc3c(=O)n(-c4ccc5c(cnn5CCN5CCCC5)c4)ccc3o2)nn1.Cl`, the melting point was 282 to 284 °C. With `Cl.O=c1c2cc(-c3ccc(Cl)cc3)oc2ccn1-c1ccc2c(cnn2CCN2CCOCC2)c1` the melting point was 260 to 268 °C (dec.). In the case of `Cl.O=c1c2cc(-c3ccc(Cl)cc3)oc2ccn1-c1ccc2c(cnn2CCN2CCNCC2)c1`, the melting point is reported as 298 to 300 °C (dec.). For `Cl.O=c1c2cc(-c3ccc(Cl)cc3)oc2ccn1-c1ccc2c(cnn2CCN2CC[C@@H](O)C2)c1`, the melting point was 242 to 246 °C (dec.). `Cl.O=c1c2cc(-c3ccc(Cl)cc3Cl)oc2ccn1-c1ccc2c(cnn2CCN2CCCC2)c1` showed a melting point of 258 to 260 °C. In the case of `O=c1c2cc(-c3ccccn3)oc2ccn1-c1ccc2c(cnn2CCN2CCCC2)c1` (as salt: hydrochloride), the melting point is reported as 50 to 52 °C. `O=c1c2cc(-c3ccc(Cl)cn3)oc2ccn1-c1ccc2c(cnn2CCN2CCCC2)c1` (as salt: hydrochloride) [Example 17, 2-(5-Chloropyridin-2-yl)-5-(1-(2-(pyrrolidin-1-yl)ethyl)-1H-indazol-5-yl)furo[3,2-c]pyridin-4(5H)-one dihydrochloride] showed a melting point of 268 to 270 °C. With `O=c1c2cc(-c3cccnc3)oc2ccn1-c1ccc2c(cnn2CCN2CCCC2)c1` (as salt: hydrochloride) [Example 22, 2(Pyridin-3-yl)-5-(1-(2-(pyrrolidin-1-yl)ethyl)-1H-indazol-5-yl)furo[3,2-c]pyridin-4(5H)-one dihydrochloride] the melting point was 188 to 190 °C. For `O=c1c2cc(-c3ccc(F)cn3)oc2ccn1-c1ccc2c(cnn2CCN2CCCC2)c1` (as salt: hydrochloride) [Example 23, 2-(5-Fluoropyridin-2-yl)-5-(1-(2-(pyrrolidin-1-yl)ethyl)-1H-indazol-5-yl)furo[3,2-c]pyridin-4(5H)-one dihydrochloride], the melting point was 266 to 268 °C. `O=c1c2cc(-c3ncccn3)oc2ccn1-c1ccc2c(cnn2CCN2CCCC2)c1` (as salt: hydrochloride) [Example 26, 2-(Pyrimidin-2-yl)-5-(1-(2-(pyrrolidin-1-yl)ethyl)-1H-indazol-5-yl)furo[3,2-c]pyridin-4(5H)-one Dihydrochloride] showed a melting point of 272 to 274 °C.
